# Measurements as given in US5283247A, “Anticonvulsant substituted quinazolones” (Research Corporation Technologies, Inc., priority 1992, dated 1994).
# Legend:
# [1] = cited from earlier work
# [2] = 24 hour mortality / toxicity in mice after test compound and pentylenetetrazol; type: in vivo, male mice (Swiss-Webster); settings: for 24 Hour Mortality: 100 mg/kg ip, 24 hours after pentylenetetrazol injection, groups of 10; for toxicity at the effective dosage: Example 6, 100 mg/kg ip
# Procedure: (§1) The mice were divided in groups of 10, keeping the group weights equal as far as possible. The quinazolones shown in Table 2 as well as methaqualone were injected ip (100 mg/kg) in a 5% aqueous suspension of gum acacia to one group of 10 animals. One hour after the administration of quinazolones, the mice were injected with pentylenetetrazol (90 mg/kg) sc under the loose skin of the back. […] The mice were then observed for the following 60 minutes for the occurrence of seizures. One episode of clonic spasm which persisted for a minimum period of 5 seconds was considered a threshold convulsion. Transient intermittent jerks or tremulousness were not taken into account. Animals devoid of even a threshold convulsion during the period of 60 minutes were considered protected. […] Mortality was recorded 24 hours after the pentylenetetrazol injection. After the injection of test compounds, behavioral observations were also made. […] 2 and compound no.
# [3] = reference 3; cited from earlier work
# [4] = pentylenetetrazol (90 mg/kg sc) induced seizures in mice, percent protection; type: in vivo, male mice (Swiss-Webster); settings: for Percent Protection: 100 mg/kg ip, pentylenetetrazol 90 mg/kg sc one hour later, observed 60 minutes (Table 3); for Percent Protection / protection against pentylenetetrazol seizures: mice; for Percent Protection against pentylenetetrazol (dose response): pentylenetetrazol 90 mg/kg s.c. given 1 hour after; for Percent Protection against pentylenetetrazol (time response): pentylenetetrazol 90 mg/kg s.c.; for protection against pentylenetetrazol seizures: Example 6, 100 mg/kg ip
# Procedure: as §1
# (§2) Dose response and time response studies were performed with compound no. 2 by injecting it into a group of 10 male Swiss-Webster mice. In addition, a group of 10 male ICR mice were injected with different dosages of compound no. 2 to determine the approximate LD50.
# [5] = maximal electric shock seizures (MES) in rats; type: in vivo; settings: 50 mg/kg orally
# Procedure: (§3) Compound No. 2 was also tested in rats. Four rats were treated with compound no. 2 at a dosage of 50 mg/kg orally. Anticonvulsant effects of compound no. […] The toxic symptoms were also observed. It can be seen from this table that compound no.
# (§4) Maximal electroshock seizures were elicited with a 60 cycle alternating current of 50mA intensity (5-7 times that necessary to elicit minimal electroshock seizures) delivered for 0.2 seconds via corneal electrodes. A drop of 0.9% saline was instilled in the eye prior to application of the electrodes in order to […]. Abolition of the hind limb tonic extension component of the seizure was defined as protection.
# [6] = behavioral observations / gross CNS effects in mice; type: in vivo, male mice (Swiss-Webster); settings: 100 mg/kg ip, after injection of test compounds
# Procedure: The mice were divided in groups of 10, keeping the group weights equal as far as possible. The quinazolones shown in Table 2 as well as methaqualone were injected ip (100 mg/kg) in a 5% aqueous suspension of gum acacia to one group of 10 animals. One hour after the administration of quinazolones, the mice were injected with pentylenetetrazol (90 mg/kg) sc under the loose skin of the back. […] The mice were then observed for the following 60 minutes for the occurrence of seizures. One episode of clonic spasm which persisted for a minimum period of 5 seconds was considered a threshold convulsion. Transient intermittent jerks or tremulousness were not taken into account. Animals devoid of even a threshold convulsion during the period of 60 minutes were considered protected. […] Mortality was recorded 24 hours after the pentylenetetrazol injection. After the injection of test compounds, behavioral observations were also made.
# [7] = pentylenetetrazol-induced seizure in rats; type: in vivo; settings: 50 mg/kg orally
# Procedure: as §3
# [8] = Maximal Electric Shock (MES) seizure in mice; type: in vivo; settings: 30 mg/kg ip in mice
# Procedure: In addition, compound no. 2 was also tested against Maximal Electric Shock (MES) seizure. Compound no.
# as §4
# [9] = approximate LD50 in mice; settings: mouse, in vivo, ip; male ICR mice, observed 24 hours
# Procedure: as §2
# Approximate LD50 was determined in male ICR mice.
# [10] = therapeutic index compared with methaqualone; settings: conclusion from Examples 6, 7 and 8
# [11] = toxic symptoms in rats; type: in vivo; settings: 50 mg/kg orally
# Procedure: as §3
structure (smiles),measurement,setting,value
Cc1nc2ccccc2c(=O)n1-c1ccccc1C(F)(F)F [2-methyl-3-(2-trifluoromethylphenyl)-4-quinazolone],sedative effect compared with methaqualone,[1]; reference 4,better sedative effect
same,toxicity compared with methaqualone,[1]; reference 4,lower toxicity
"Cc1ccccc1-n1c(C)nc2ccccc2c1=O [Compound 1, 2-methyl-3-o-tolyl-4-quinazolone]",abuse potential,[1]; in vivo,high abuse potential
same,24 Hour Mortality,[2],0
same,metabolism in the body,[3],metabolized in the body to the N^1 -oxide of the compound
same,Percent Protection,[4],100%
"Cc1cccnc1-n1c(C)nc2ccccc2c1=O [Compound 2, 2-Methyl-3-(3-methyl-2-pyridyl)-4-quinazolone]",Percent protection against MES,[5]; 0.25 Hr.,75%
same,Percent protection against MES,[5]; 0.5 Hr.,50%
same,Percent protection against MES,[5]; 1 Hr.,75%
same,Percent protection against MES,[5]; 2 Hr.,50%
same,Percent protection against MES,[5]; 4 Hr.,25%
same,protection against MES,"[5]; all time periods, Example 8",protected against both MES and pentylenetetrazol-induced seizure at all time periods
same,24 Hour Mortality,[2],0
same,toxicity at the effective dosage,[2],did not exhibit any toxicity
same,Behavioral Observations,[6],mild sedation
same,Percent protection against pentylenetetrazol,"[7]; 0.25 Hr., three rats",33.3%
same,Percent protection against pentylenetetrazol,"[7]; 0.5 Hr., four rats",75%
same,Percent protection against pentylenetetrazol,"[7]; 1 Hr., four rats",25%
same,Percent protection against pentylenetetrazol,"[7]; 4 Hr., four rats",25%
same,protection against pentylenetetrazol-induced seizure,"[7]; all time periods, Example 8",protected against both MES and pentylenetetrazol-induced seizure at all time periods
same,protection against MES,[8],100%
same,Percent Protection against pentylenetetrazol (dose response),[4]; 40 mg/kg i.p.,20%
same,Percent Protection against pentylenetetrazol (dose response),[4]; 60 mg/kg i.p.,80%
same,Percent Protection against pentylenetetrazol (dose response),[4]; 80 mg/kg i.p.,90%
same,Percent Protection against pentylenetetrazol (dose response),[4]; 100 mg/kg i.p.,100%
same,Percent Protection,[4],100%
same,Percent Protection against pentylenetetrazol (time response),"[4]; 1 hr after injection, 100 mg/kg i.p.",100%
same,Percent Protection against pentylenetetrazol (time response),"[4]; 2 hr after injection, 100 mg/kg i.p.",60%
same,Percent Protection against pentylenetetrazol (time response),"[4]; 3 hr after injection, 100 mg/kg i.p.",0%
same,Percent Protection against pentylenetetrazol (time response),"[4]; 4 hr after injection, 100 mg/kg i.p.",0%
same,protection against pentylenetetrazol seizures,[4],100%
same,LD50 at 24 h,[9],~1000 mg/kg
same,therapeutic index versus methaqualone,[10],higher therapeutic indices than methaqualone
same,Toxicity in percent rats,[11]; 0.25 Hr.,0%
same,Toxicity in percent rats,[11]; 0.5 Hr.,0%
same,Toxicity in percent rats,[11]; 1 Hr.,0%
same,Toxicity in percent rats,[11]; 2 Hr.,0%
same,Toxicity in percent rats,[11]; 4 Hr.,0%
same,toxic symptoms,"[11]; rats, all time periods, Example 8",without exhibiting any toxic symptoms
"Cc1ccccc1-n1c(C)nc2cc(N)ccc2c1=O [Compound 14, 2-Methyl-3-o-tolyl-7-amino-4-quinazolone]",24 Hour Mortality,[2],0
same,toxicity at the effective dosage,[2],did not exhibit any toxicity
same,Behavioral Observations,[6],none
same,Percent Protection,[4],100%
same,protection against pentylenetetrazol seizures,[4],100%
same,therapeutic index versus methaqualone,[10],higher therapeutic indices than methaqualone
